The text below walks through data of US10385395B2, “Diagnostic tools for response to 6-thiopurine therapy” (THE REGENTS OF THE UNIVERSITY OF CALIFORNIA, priority 2012, dated 2019).

Assay [1] concerns NK cells. Conditions: Crohn's disease patients; Brogan et al. 1985; cited from earlier work.
The test system of assay [2] is CD4+ T cell proliferation. Put plainly: T cell proliferation in the absence of NK cells with exogenous cytokines added. The assay is classed as cell-based, human. Conditions: cytokine added at 20 ng mL-1, three-day culture (FIG. 9). As to the method: Before co-culture, round bottom 96-well plates were coated with anti-CD3/CD28 antibody (R&D Systems, Minneapolis, Minn.) in PBS at 1.5 ug ml^−1 at room temperature for 2 hours, or at 0.5 ug ml^−1 at 4° C. overnight. […] For transwell assay, 24-well plates were used; NT (cells were placed on the filter side of a 1.0 um pore-sized transwell (BD Falcon, San Jose, Calif.), and CFSE-stained T cells were placed on the plate side of the transwell.

In the case of `Nc1nc2nc[nH]c2c(=S)[nH]1` [6-thioguanine], in assay [1], the “depletion of NK cells by therapy compared to other lymphoid cell types” value was “quickly and profoundly depleted”.

As for “IL-6: recombinant cytokine (R&D Systems) added to a final concentration of 20 ng ml-1”, in assay [2], the “CD4+ cell proliferation with exogenous cytokine” value was “greatly facilitated”.

B1: IFN-y: recombinant cytokine (R&D Systems) added to a final concentration of 20 ng ml-1 (protein, UniProt P01579 24-161, looked up)
Interferon gamma: QDPYVKEAENLKKYFNAGHSDVADNGTLFLGILKNWKEESDRKIMQSQIVSFYFKLFKNFKDDQSIQKSVETIKEDMNVKFFNSNKKKRDDFEKLTNYSVTDLNVQRKAIHELIQVMAELSPAAKTGKRKRSQMLFRG
Consider B1, for which the “CD4+ cell proliferation with exogenous cytokine” value in assay [2] is “marginal effects”.
